# Source: patent US10730848B2 (priority 2013, dated 2020)
# Entries after “also recorded” stand apart in the source; their conditions may differ. Where two headings read alike, the source gives them in different places.
# Legend:
# LT [1] = conditions: read-out: IC50 of previously reported toxin entry inhibitors; cited from earlier work
# acidic compartments = assay type: cell-based
# EGFR = assay type: cell-based
# PA+LFnDTA = assay type: cell-based
# THP-1 cells = assay type: cell-based, human
# [2] = test system: GFP-expressing Armstrong variant of LCMV; assay type: cell-based
# [3] = test system: anthrax lethal toxin (LT); assay type: cell-based, mice
# caspase-1 = assay type: cell-based, mice
# [4] = test system: anthrax lethal toxin (LT); test: cells; assay type: cell-based, murine; conditions: for IC50: Mus musculus
# LT [5] = conditions: rat, in vivo
# [6] = test system: VSV-pseudotyped lentivirus; assay type: cell-based
# transferrin (Tf) = assay type: cell-based
# influenza A/WSN/33 virus = assay type: cell-based
# Diphtheria toxin = assay type: cell-based
# F. tularensis LVS = assay type: cell-based
# [7] = test system: Nipah-pseudotyped lentivirus; assay type: cell-based
# PA = assay type: cell-based
# EGF = assay type: cell-based
# [8] = test system: exotoxin A from Pseudomonas aeruginosa (ExoA); assay type: cell-based
# MEK2 = assay type: cell-based, murine
molecule,measurement,setting,value
"Cl.N [ammonium chloride, reference compound]",IC50,LT [1],5000 µM
same,cell-associated Lysotracker Red fluorescence (neutralization of acidic compartments),acidic compartments,markedly decreased
same,EGFR stabilization at 60 minutes,EGFR,inhibit EGF-induced receptor degradation
"Cc1cccc(C)c1NC(=O)N/N=C/c1ccc(Br)cc1 [Compound 1, N^1-(4-BROMOBENZYLIDENE)-N^4-(2,6-DIMETHYLPHENYL)SEMICARBAZONE]",protection from PA+LFnDTA,PA+LFnDTA,Protects Cells from PA+LFnDTA; also recorded: resistant
same,trafficking of Texas-red dextran to phagosomes,THP-1 cells,Does Not Block Texas Red-Dextran Trafficking to Phagosomes; also recorded: Neither EGA nor bafilomycin A1 inhibited
same,acute LCMV infection,[2],Reduces Acute LCMV Infection; also recorded: decreased the total number of cells infected and the amount of virus being produced
same,protection of BMDMs from killing by LT,[3],protected
same,LT-mediated caspase-1 activation,caspase-1,inhibits LT-mediated caspase-1 activation; also recorded: active caspase-1 was not detected
same,"rescued viability, of unintoxicated controls",[4],up to 100%
same,time after LT at which addition still completely protects cells from killing,[4],up to 15 minutes
same,IC50,[4]; RAW264.7,1.4 µM
same,IC50,"[4]; RAW264.7, read-out: IC50 (In uM)",1.27 µM
same,IC50,"[4]; RAW264.7, read-out: IC50, inhibition of LT-induced cell death",1.4 µM
same,IC50,"[4]; RAW264.7, read-out: IC50 in cell-based LT intoxication experiments",1.4 µM
same,tolerability,LT [5],well tolerated in rats
same,infection by VSV-G pseudotyped virus,[6],Inhibits Infection by Low pH-dependent VSV-pseudotyped lentivirus; also recorded: effectively inhibited; also recorded: neutralized
same,HdCDT localization in EEA-1-positive vesicles,HdCDT,Traps HdCDT in Enlarged EEA-1-Positive Vesicles
same,cytotoxicity induced by Hd-CDT,HdCDT,Inhibits cytotoxicity induced by Hd-CDT
same,transferrin recycling to the cell surface,transferrin (Tf),Does Not Inhibit Transferrin Receptor Recycling to the Plasma Membrane; also recorded: had no affect
same,influenza virus infection (reporter activation),influenza A/WSN/33 virus,Inhibits Entry of Influenza virus; also recorded: completely inhibited infection; also recorded: partial protection
same,protection of HeLa cells from DT,Diphtheria toxin,effectively protected
same,phagocytic uptake of F. tularensis LVS,F. tularensis LVS,Does Not Block Phagocytic Uptake of F. tularensis; also recorded: Neither EGA nor bafilomycin A1 blocked
same,cell-associated Lysotracker Red fluorescence (neutralization of acidic compartments),acidic compartments,Does Not Neutralize Acidic Compartments; also recorded: did not reduce
same,infection by Nipah-pseudotyped lentivirus,[7],Does Not Inhibit Infection; also recorded: did not inhibit
same,EGFR degradation at early times post EGF stimulation,EGFR; 15-30 min,Slows EGFR-Degradation at 15 Minutes; also recorded: significantly less EGFR degraded at 30 min
same,binding of PA83 to cells or proteolytic processing to PA63,PA,did not block
same,EGF retention in EEA1-positive endosomes,EGF,Results in EGF Retention in EEA1+ Endosomes; also recorded: retained in enlarged endosomes
same,stabilization of EGF,EGF,stabilized EGF up to 60 min
same,protection of HeLa cells from ExoA,[8],effectively protected
same,LT-mediated cleavage of MEK2,MEK2,inhibits LT-mediated cleavage of MEK-2; also recorded: completely abrogated
same,intoxication (cell cycle arrest) by EcCDT,EcCDT,did not inhibit intoxication
bafilomycin A1 [reference compound],trafficking of Texas-red dextran to phagosomes,THP-1 cells,Neither EGA nor bafilomycin A1 inhibited
same,phagocytic uptake of F. tularensis LVS,F. tularensis LVS,Neither EGA nor bafilomycin A1 blocked
same,cell-associated Lysotracker Red fluorescence (neutralization of acidic compartments),acidic compartments,markedly decreased
